biological target: T1, mTOR kinase (Homo sapiens, UniProt P42345); experiment: In vitro mTOR kinase assay, Test (a)(i) (AlphaScreen); format: biochemical; conditions: recombinant FLAG-tagged mTOR (1362-2549), ATP 20 μM; read-out: Test (a)(i) IC50
T1 construct: FLAG; made in house
Description: (a)(i) In Vitro mTOR Kinase Assay
A C-terminal truncation of mTOR encompassing amino acid residues 1362 to 2549 of mTOR (EMBL Accession No. L34075) was stably expressed as a FLAG-tagged fusion in HEK293 cells as described by Vilella-Bach et al., […], 1999, 274, 4266-4272. The HEK293 FLAG-tagged mTOR (1362-2549) stable cell line was routinely maintained at 37° C. with 5% CO2 up to a confluency of 70-90% in Dulbecco's modified Eagle's growth medium (DMEM; Invitrogen Limited, Paisley, UK Catalogue No. 41966-029) containing 10% heat-inactivated foetal calf serum (FCS; Sigma, Poole, Dorset, UK, Catalogue No. F0392), 1% L-glutamine (Gibco, Catalogue No. 25030-024) and 2 mg/ml Geneticin (G418 sulfate; Invitrogen Limited, UK Catalogue No. 10131-027). Following expression in the mammalian HEK293 cell line, expressed protein was purified using the FLAG epitope tag using standard purification techniques.
A 30 μl mixture of recombinant purified mTOR enzyme, 1 μM biotinylated peptide substrate (Biotin-Ahx-[…]NH2; Bachem UK Ltd), ATP (20 μM) and a buffer solution [comprising Tris-HCl pH7.4 buffer (50 mM), EGTA (0.1 mM), bovine serum albumin (0.5 mg/mL), DTT (1.25 mM) and manganese chloride (10 mM)] was agitated at room temperature for 90 minutes.
These assay solutions were incubated for 2 hours at room temperature.
Phosphorylated biotinylated peptide is formed in situ as a result of mTOR mediated phosphorylation. The phosphorylated biotinylated peptide that is associated with AlphaScreen Streptavidin donor beads forms a complex with the p70 S6 Kinase (T389) 1A5 Monoclonal Antibody that is associated with Alphascreen Protein A acceptor beads. […] Accordingly, the presence of mTOR kinase activity results in an assay signal. In the presence of an mTOR kinase inhibitor, signal strength is reduced.

T1 sequence (P42345 1362-2549): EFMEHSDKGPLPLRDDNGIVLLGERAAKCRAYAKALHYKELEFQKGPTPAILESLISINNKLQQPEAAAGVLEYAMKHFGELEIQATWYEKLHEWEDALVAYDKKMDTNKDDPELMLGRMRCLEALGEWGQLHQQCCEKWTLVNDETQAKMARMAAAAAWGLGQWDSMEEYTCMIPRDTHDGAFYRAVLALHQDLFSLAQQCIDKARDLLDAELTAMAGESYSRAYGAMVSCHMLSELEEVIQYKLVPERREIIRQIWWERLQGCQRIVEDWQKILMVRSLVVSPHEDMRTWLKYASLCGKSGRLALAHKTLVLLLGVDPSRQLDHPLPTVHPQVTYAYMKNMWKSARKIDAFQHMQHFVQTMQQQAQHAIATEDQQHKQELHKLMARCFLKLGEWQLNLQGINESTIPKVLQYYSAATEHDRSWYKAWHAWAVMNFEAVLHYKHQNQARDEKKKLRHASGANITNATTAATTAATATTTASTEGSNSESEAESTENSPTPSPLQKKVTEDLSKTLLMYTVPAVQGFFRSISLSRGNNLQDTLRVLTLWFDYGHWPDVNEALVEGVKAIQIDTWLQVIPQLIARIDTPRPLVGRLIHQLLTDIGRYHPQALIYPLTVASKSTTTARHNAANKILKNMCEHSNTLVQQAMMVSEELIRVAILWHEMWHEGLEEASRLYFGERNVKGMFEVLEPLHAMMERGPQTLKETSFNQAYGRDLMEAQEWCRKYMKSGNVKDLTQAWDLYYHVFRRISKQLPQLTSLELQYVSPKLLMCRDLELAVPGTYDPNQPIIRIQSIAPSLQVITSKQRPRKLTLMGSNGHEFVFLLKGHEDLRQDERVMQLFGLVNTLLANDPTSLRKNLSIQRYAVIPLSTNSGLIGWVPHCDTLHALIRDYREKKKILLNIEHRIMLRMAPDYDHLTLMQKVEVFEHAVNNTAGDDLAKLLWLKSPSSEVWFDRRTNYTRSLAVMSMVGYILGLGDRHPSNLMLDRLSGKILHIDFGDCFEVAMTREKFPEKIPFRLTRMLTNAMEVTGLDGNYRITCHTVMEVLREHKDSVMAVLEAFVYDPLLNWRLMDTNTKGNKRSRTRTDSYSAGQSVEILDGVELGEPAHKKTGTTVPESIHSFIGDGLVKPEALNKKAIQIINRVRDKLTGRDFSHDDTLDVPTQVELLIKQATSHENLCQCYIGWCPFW

In order of falling IC50:
1. CS(=O)(=O)Cc1cc(N2CCOCC2)nc(-c2ccc(NC(=O)c3ccccc3)cc2)n1 [Example 4a, N-[4-[4-(methylsulfonylmethyl)-6-morpholin-4-yl-pyrimidin-2-yl]phenyl]benzamide]  15.3 µM
2. Cc1cc(C(=O)Nc2ccc(-c3nc(CS(C)(=O)=O)cc(N4CCOCC4)n3)cc2)n(C)n1 [Example 5af, 2,5-dimethyl-N-[4-[4-(methylsulfonylmethyl)-6-morpholin-4-yl-pyrimidin-2-yl]phenyl]pyrazole-3-carboxamide]  10 µM
3. CS(=O)(=O)Cc1cc(N2CCOCC2)nc(-c2ccc(NC(=O)C3(C(N)=O)CC3)cc2)n1 [Example 5ab, N′-[4-[4-(methylsulfonylmethyl)-6-morpholin-4-yl-pyrimidin-2-yl]phenyl]cyclopropane-1,1-dicarboxamide]  6.59 µM
4. CS(=O)(=O)Cc1cc(N2CCOCC2)nc(-c2ccc(NC(=O)C3CCOCC3)cc2)n1 [Example 5ac, N-[4-[4-(methylsulfonylmethyl)-6-morpholin-4-yl-pyrimidin-2-yl]phenyl]oxane-4-carboxamide]  5.38 µM
5. CS(=O)(=O)Cc1cc(N2CCOCC2)nc(-c2ccc(NC(=O)CCC3CC3)cc2)n1 [Example 5aa, 3-cyclopropyl-N-[4-[4-(methylsulfonylmethyl)-6-morpholin-4-yl-pyrimidin-2-yl]phenyl]propanamide]  4.99 µM
6. CC(=O)NCCC(=O)Nc1ccc(-c2nc(CS(C)(=O)=O)cc(N3CCOCC3)n2)cc1 [Example 5ad, 3-acetamido-N-[4-[4-(methylsulfonylmethyl)-6-morpholin-4-yl-pyrimidin-2-yl]phenyl]propanamide]  3.99 µM
7. CS(=O)(=O)Cc1cc(N2CCOCC2)nc(-c2ccc(NC(=O)C3=COCCC3)cc2)n1 [Example 5ag, N-[4-[4-(methylsulfonylmethyl)-6-morpholin-4-yl-pyrimidin-2-yl]phenyl]-5,6-dihydro-4H-pyran-3-carboxamide]  2.76 µM
8. CS(=O)(=O)Cc1cc(N2CCOCC2)nc(-c2ccc(NC(=O)CCc3c[nH]cn3)cc2)n1 [Example 5ah, 3-(1H-imidazol-4-yl)-N-[4[4-(methylsulfonylmethyl)-6-morpholin-4-yl-pyrimidin-2-yl]phenyl]propanamide]  2.75 µM
9. CS(=O)(=O)Cc1cc(N2CCOCC2)nc(-c2ccc(NC(=O)c3cc[nH]n3)cc2)n1 [Example 5ae, N-[4-[4-(methylsulfonylmethyl)-6-morpholin-4-yl-pyrimidin-2-yl]phenyl]-1H-pyrazole-3-carboxamide]  1.81 µM
10. CS(=O)(=O)Cc1cc(N2CCOCC2)nc(-c2ccc(NC(=O)C3CCC3)cc2)n1 [Example 5, N-[4-[4-(Methylsulfonylmethyl)-6-morpholin-4-yl-pyrimidin-2-yl]phenyl]cyclobutanecarboxamide]  1.17 µM
11. CC(=O)Nc1ccc(-c2nc(CS(C)(=O)=O)cc(N3CCOCC3)n2)cc1 [Example 4, N-[4-[4-(Methylsulfonylmethyl)-6-morpholin-4-yl-pyrimidin-2-yl]phenyl]acetamide]  0.93 µM
12. CCC(=O)Nc1ccc(-c2nc(CS(C)(=O)=O)cc(N3CCOCC3)n2)cc1 [Example 5a, N-[4-[4-(methylsulfonylmethyl)-6-morpholin-4-yl-pyrimidin-2-yl]phenyl]propanamide]  0.648 µM
13. C[C@H]1COCCN1c1cc(CS(C)(=O)=O)nc(-c2ccc(NC(=O)CO)cc2)n1 [Example 3, 2-Hydroxy-N-[4-[4-[(3S)-3-methylmorpholin-4-yl]-6-(methylsulfonylmethyl)pyrimidin-2-yl]phenyl]acetamide]  0.238 µM
14. CC(=O)Nc1ccc(-c2nc(CS(C)(=O)=O)cc(N3CCOCC3)n2)cc1CO [Example 1, N-[2-(Hydroxymethyl)-4-[4-(methylsulfonylmethyl)-6-morpholin-4-yl-pyrimidin-2-yl]phenyl]acetamide]  0.164 µM
15. C[C@H]1COCCN1c1cc(CS(C)(=O)=O)nc(-c2ccc(NC(=O)c3ccno3)cc2)n1 [Example 2, N-[4-[4-[(3S)-3-Methylmorpholin-4-yl]-6-(methylsulfonylmethyl)pyrimidin-2-yl]phenyl]-1,2-oxazole-5-carboxamide]  0.0909 µM
